Where “and” joins values, the source holds several entries; their conditions need not be identical. Identical values can stand only once.
System: 817829-284-R-J1-PDC complex spheroids, viability
Assay: Anticancer human tumor 817829-284-R-J1-PDC patient-derived colon adenocarcinoma cell line growth inhibition [CLK]
Conditions: for viability, T/C: stronger effect = lower value
Description: A high-throughput screen of multi-cell type tumor spheroids was designed to identify active combinations of […] and targeted small molecules. Complex spheroids include a stromal component modeled by human endothelial cells (HUVEC) and fibroblasts modeled by human mesenchymal stem cells (MSCs). The concentration ranges selected for each drug and investigational agent were based upon clinically achievable concentrations if the clinical Cmax of the agent was known.
Compounds. The drugs and investigational agents: cirtuvivint (SM08502; NSC835563), CC-671 (NSC850746), vemurafenib (NSC761431), tapotoclax (NSC804041), sotorasib (NSC818433), adagrasib (NSC831453), MRTX-1133 (NSC836407), BAY2416964 (NSC825713), copanlisib (NSC816437), inavolisib (NSC800729), abemaciclib (NSC768073), osimertinib (NSC779217), entinostat (NSC756642), eltanexor (KPT-8602, NSC794443), venetoclax (NSC766270), ceralasertib (NSC777638), bortezomib (NSC756655), olaparib (NSC753686), talazoparib (NSC767125), alisertib (NSC759677), peposertib (NSC802822), gemcitabine (NSC613327), 5-fluorouracil (NSC19893), SN-38 (NSC673596), oxaliplatin (NSC266046), paclitaxel (NSC125973), and doxorubicin (NSC123127), were obtained from the National Cancer Institute (NCI) Developmental Therapeutics Program Chemical Repository. The FDA-approved anticancer drug set is available from the Developmental Therapeutics Program at https://dtp.cancer.gov/organization/dscb/obtaining/available plates.htm. […] The stock solutions were prepared in dimethyl sulfoxide (DMSO, Sigma-Aldrich, St. Louis, MO, cat. D2650), except for the platinum complexes which were prepared in saline (Quality Biological, Gaithersburg, MD, cat. 114-055-101), at 800-fold the tested concentration and stored at -70 degrees C prior to their use. All drugs and investigational agents were tested over a range starting from a high concentration at or near the clinical Cmax and decreasing in half-log increments. If the clinical Cmax for an agent had not been determined, the highest concentration tested was 10 microM.
Cell Culture. All cells were maintained in an incubator at 37 degrees C and 5% CO2 with 95% humidity. The PDC lines were cultured according to standard operating procedures established by the NCI PDMR. Briefly, all PDCs were thawed and cultured in Matrigel-coated flasks prepared with a working solution of 1X Ham's F-12 nutrient mix, without supplementation (Invitrogen, Waltham, MA, cat. 11765054), 100 U/mL penicillin-streptomycin (Invitrogen, cat. 15140122), and 2.5% Matrigel (Corning Inc., Corning, NY, cat. 354248) for the first three passages. The 947758-054-R-J2-PDC line was cultured in 6B/Colon 1A media, which includes advanced DMEM/F-12 (Thermo Fisher Scientific, cat. 12634028), 10 mM HEPES (Thermo Fisher Scientific, cat. 15630080), 1X GlutaMAX supplement (Thermo Fisher Scientific, cat. 35050061), 0.1 mg/mL primocin (InvivoGen, cat. ant-pm-2), 10% defined fetal bovine serum, heat inactivated (HyClone Laboratories Inc., cat. SH30070.03HI), 1.25 mM N-Acetyl-L-cysteine (Sigma-Aldrich, cat. A9165), 10 mM nicotinamide (Sigma-Aldrich, cat. N0636), 1X B-27 supplement (Thermo Fisher Scientific, cat. 17504044), 1X N-2 supplement (Thermo Fisher Scientific, cat. 17502048), and 10 microM Y-27632 dihydrochloride (Tocris Bioscience, cat. 1254). The 876862-298-R-J1-PDC was cultured in 6E media, which includes all 6B/Colon 1A media components plus 50% L-WRN conditioned media (ATCC, cat. CRL-3276), 50 ng/mL recombinant human EGF recombinant protein (hEGF; Thermo Fisher Scientific, cat. PHG0311), 10 ng/mL recombinant human fibroblast growth factor 10 (hGFG-10; PeproTech, cat. 100-26), 1 ng/mL recombinant human fibroblast growth factor 2 (hFGF-2; PeproTech, cat. 100-18B), and 1 µM prostaglandin E2 (PGE2; Tocris, cat. 2296). The 227483-062-R1-J1-PDC line was cultured in Panc media, containing all 6E components except hFGF-2, with the addition of 500 nM SB-431542 (Selleckchem, cat. S1067) and 10 nM gastrin (Tocris, cat. 3006). […]
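Note: spheroids exposed to the agents for seven days before readout.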

| SMILES | IC50 (curve of compound) | IC50 (compound alone, run of 08/14/2023) | IC50 (compound alone, run of 08/15/2023) [nM] | viability, T/C (compound 0.00316 µM) | viability, T/C (compound 0.01 µM) | viability, T/C (compound 0.0316 µM) | viability, T/C (compound 0.1 µM) | viability, T/C (compound 0.316 µM) | viability, T/C (compound 1 µM) | viability, T/C (compound 3.16 µM) | viability, T/C (compound 10 µM) | viability, T/C (compound 0.000316 µM) | viability, T/C (compound 0.001 µM) | viability, T/C (compound 0.00949 µM) [%] | viability, T/C (compound 0.03 µM) [%] | viability, T/C (compound 0.0949 µM) [%] | viability, T/C (compound 0.3 µM) [%] | viability, T/C (compound 0.949 µM) [%] | viability, T/C (compound 3 µM) [%] |
| --- | --- | --- | --- | --- | --- | --- | --- | --- | --- | --- | --- | --- | --- | --- | --- | --- | --- | --- | --- |
| CNC(=O)c1ccc(Nc2nc(OC3CCCC3)c3c(-c4ccc5nc(C)oc5c4)c[nH]c3n2)c(OC)c1 | – | – | < 31.6 | – | – | 33.6% [middle of 8 runs] | 28.2% [middle of 8 runs] | 26.3% [middle of 8 runs] | 24.2% [middle of 8 runs] | 20.1% [middle of 8 runs] | 23.3% [middle of 8 runs] | – | – | – | – | – | – | – | – |
| COC1C=CCC(C)C(C)S(=O)(=O)NC(=O)c2ccc3c(c2)N(CC2CCC21)CC1(CCCc2cc(Cl)ccc21)CO3 (configuration not stated) | 4090 nM and 5030 nM | – | – | – | – | 125% and 85.6% | 98.4% and 97.6% | 90.7% and 66.9% | 91.7% and 93.4% | 65.8% and 79% | 8.51% and 6.66% | – | – | – | – | – | – | – | – |
| Cn1ncnc1[C@H]1c2n[nH]c(=O)c3cc(F)cc(c23)N[C@@H]1c1ccc(F)cc1 | 3.4 nM and 22.6 nM | – | – | 50.8% and 73.8% | 48.2% and 62.2% | 34.8% and 42% | 33.3% and 35.4% | – | – | – | – | 65.2% and 92.2% | 93.3% and 76.2% | – | – | – | – | – | – |
| Nc1ccccc1NC(=O)c1ccc(CNC(=O)OCc2cccnc2)cc1 | 465 nM | – | – | – | – | 89% | 85.3% | 53.5% | 35.9% | 10% | 0.1% | – | – | – | – | – | – | – | – |
| O=c1[nH]cc(F)c(=O)[nH]1 | 5960 nM and 898 nM | – | – | – | – | 66% and 85.8% | 74.9% and 79.8% | 98.9% and 85% | 67.1% and 46.5% | 63.9% and 53.2% | 39.6% and 38% | – | – | – | – | – | – | – | – |

More lines, main results first:

| IC50 (curve of compound) | IC50 (compound alone, run of 08/14/2023) | IC50 (compound alone, run of 08/15/2023) [nM] | SMILES | viability, T/C (compound 0.00316 µM) | viability, T/C (compound 0.01 µM) | viability, T/C (compound 0.0316 µM) | viability, T/C (compound 0.1 µM) | viability, T/C (compound 0.316 µM) | viability, T/C (compound 1 µM) | viability, T/C (compound 3.16 µM) | viability, T/C (compound 10 µM) | viability, T/C (compound 0.000316 µM) | viability, T/C (compound 0.001 µM) | viability, T/C (compound 0.00949 µM) [%] | viability, T/C (compound 0.03 µM) [%] | viability, T/C (compound 0.0949 µM) [%] | viability, T/C (compound 0.3 µM) [%] | viability, T/C (compound 0.949 µM) [%] | viability, T/C (compound 3 µM) [%] |
| --- | --- | --- | --- | --- | --- | --- | --- | --- | --- | --- | --- | --- | --- | --- | --- | --- | --- | --- | --- |
| < 3.16 nM | – | – | CCc1c2c(nc3ccc(O)cc13)-c1cc3c(c(=O)n1C2)COC(=O)[C@]3(O)CC | 23.1% and 29.4% | 17.5% and 16.5% | 13.9% and 16.5% | 9.42% and 10.3% | 6.24% and 7.57% | 3.66% and 4.31% | – | – | – | – | – | – | – | – | – | – |
| – | 49.5 nM [middle of 12 runs] | – | CN1CCN(c2cc(C(=O)Nc3cc4cc(-c5cnn(C)c5)ccc4cn3)ccn2)CC1 | – | – | 70.5% [middle of 12 runs] | 20% [middle of 12 runs] | 2.17% [middle of 12 runs] | 0.13% [middle of 8 runs] | 0.17% [middle of 7 runs] | 0.13% [middle of 8 runs] | – | – | – | – | – | – | – | – |
| 11.9 nM and 24.8 nM | – | – | COc1c(OCCCN2CCOCC2)ccc2c3n(c(=NC(=O)c4cnc(N)nc4)nc12)CCN3 | 96% and 133% | 52% and 68.5% | 29% and 55.5% | 18.8% and 16.3% | 7.17% and 4.92% | 2.06% and 2.01% | – | – | – | – | – | – | – | – | – | – |
| 15.7 nM | – | – | NC(=O)C(=Cn1cnc(-c2cc(C(F)(F)F)cc(C(F)(F)F)c2)n1)c1cncnc1 | – | – | – | – | – | – | – | – | – | – | 69 | 23.2 | 17.2 | 8.78 | 3.63 | 2.66 |
| < 31.6 nM | – | – | Nc1ccn(C2OC(CO)C(O)C2(F)F)c(=O)n1 (configuration not stated) | – | – | 4.87% and 7.45% | 5.51% and 7.25% | 4.21% and 7.26% | 3.92% and 6.91% | 3.8% and 5.67% | 2.53% and 4.69% | – | – | – | – | – | – | – | – |
| 3680 nM and 4810 nM | – | – | O=C(c1cc(Cc2n[nH]c(=O)c3ccccc23)ccc1F)N1CCN(C(=O)C2CC2)CC1 | – | – | 87.7% and 101% | 89% and 107% | 81.1% and 74.2% | 70.4% and 86.8% | 52.5% and 54% | 34.7% and 36.2% | – | – | – | – | – | – | – | – |

— PubChem BioAssay AID2060599 (Molecular Pharmacology Branch, DTP, NCI, 2025)
